Data taken from patent US20120202744A1, “DUAL ANTAGONISM OF ENDOTHELIN TYPE A AND BRADYKININ B1 RECEPTORS FOR TREATING PAIN AND PREVENTING CARTILAGE DEGRADATION” (priority 2011, published 2012).
Non-standard residues stand in square brackets, D forms with d. Residues, ends and D or L forms follow the SMILES beside them.

Columns and labels:
[1] = system: articular cartilage of ACLT rat knee; experiment: Micro-magnetic resonance imaging of knee, cartilage mean T2; format: in vivo; conditions: ACLT rats, four weeks post-operatively; statistical significance between groups not achieved
From the text: (§1) At four or eight weeks post-surgery, animals were sacrificed by cardiac puncture under deep isoflurane anaesthesia. The right knee was dissected, and 40-mm-long samples were cut and stored in phosphate-buffered saline until scanned by digital micro-X-ray (DX) and/or micro-magnetic resonance (MR) imaging. Samples were dissected the same day as the radiological scans.
A subset of animals were sacrificed four weeks post-operatively and their right knees were imaged by micro-MR. Imaging was performed using a Bruker PharmaScan™ (Ettlingen, Germany) 7 Tesla MR scanner at the McGill University Small Animal Imaging Lab (Montreal, QC). Knee samples were placed in a custom-made support inside a 15-mL centrifuge tube, which was then filled with the MR-inert buffer FC-770™ (3M Fluorinert™ Electronic Liquid). Samples were introduced into a 1H mouse brain radio frequency (RF) coil (inner diameter 22 mm), and centred in the magnet. The RF coil was tuned and matched to the sample, and the magnet was then shimmed. The system was controlled via Bruker ParaVision™ software (version 5.0). […]
After acquisition, images were analyzed using OsiriX software (version 3.7.1). […] As well, images were analyzed for signs of cartilage decay, indicated by lower signal intensity of the articular surfaces. […]

[2] = system: rat anterior cruciate ligament transection (ACLT) model of osteoarthritis; experiment: Digital micro-X-ray (DX) OA radiological scoring of knee joints; format: in vivo; conditions: ACLT rats; for Mean radiological score: DX views, maximum possible score nine; for radiological indices of disease progression (DX) versus saline-treated controls: 0.0020≦P≦0.0214
From the text: as §1
All knee samples were X-rayed using a Faxitron MX-20™ specimen X-ray system (Faxitron X-Ray Corporation, Lincolnshire, Ill.). Anteroposterior and lateral views were acquired at 5× magnification (10×10 μm pixel size) using a dose of 26 kV for 6 seconds. Images were analyzed using OsiriX™ software (version 3.7.1) [Rosset et al. OsiriX: an open-source software for navigating in multidimensional DICOM images. Journal of digital imaging (2004) 17(3): 205-16]. Radiological evidence of joint degradation, such as joint space narrowing and osteophyte formation, was evaluated. Radiological evidence of joint degradation was scored by two blinded examiners using an OA radiological score modified from Clark et al. [Clark R L, Cuttino JT Jr, Anderle S K, Cromartie W J, Schwab J H: Radiologic analysis of arthritis in rats after systemic injection of streptococcal cell walls. Arthritis Rheum 1979, 22:25-35.] and Esser et al. [Esser R E, Hildebrand A R, Angelo R A, Watts L M, Murphey M D, Baugh L E: Measurement of radiographic changes in adjuvant-induced arthritis in rats by quantitative image analysis. Arthritis Rheum 1995, 38:129-38.]. Bone demineralization, subchondral bone erosion, and heterotopic ossification were all scored on a scale from zero (normal) to three (marked degenerative changes). Total scores were calculated by summing the individual scores for each index, with a maximum possible score of nine.
OA radiological scores were statistically analyzed by one-way ANOVA, with total scores taken as the dependent variable and treatment group as the independent variable. Pairwise post-hoc testing with Holm correction was used to establish significance in between treatment groups. P-values less than 0.05 were considered statistically significant. Analyses were conducted using R (version 2.11.0) [R Development Core Team: R: A Language and Environment for Statistical Computing. Vienna, Austria: R Foundation for Statistical Computing 2010.].

[3] = system: rat anterior cruciate ligament transection (ACLT) model of osteoarthritis; experiment: Cartilage and bone histomorphology (Safranin O/Fast Green) with OARSI histopathology scoring; format: in vivo; conditions: ACLT rats, eight weeks post-operatively, maximum value 24
Procedure: After radiological examination, knee samples were fixed in 10% neutral buffered formalin for two weeks, decalcified with RDO Rapid Decalcifier™ (Apex Engineering Products, Aurora, Ill.) for three days, circulated, and embedded in paraffin. Five-micron sagittal sections were acquired from the middle of the knee joint. Histomorphological staining was performed as previously described [Rosenberg L: Chemical basis for the histological use of safranin O in the study of articular cartilage. J Bone Joint Surg Am 1971, 53:69-82]: slides were deparrafinized, rehydrated, stained with Safranin O (which colours proteoglycans red) and Fast Green FCF (which colours collagens green), counterstained with hematoxylin, dehydrated, cleared, and mounted in Permount™. […]
Four slides from each condition were scored by two blinded examiners using the Osteoarthritis Research Society International (OARSI) histopathology assessment system [Pritzker K P H, Gay S, Jimenez S A, Ostergaard K, Pelletier J P, Revell P A, Salter D, van den Berg W B: Osteoarthritis cartilage histopathology: grading and staging. […]
OARSI scores were statistically analyzed by one-way ANOVA, with total scores taken as the dependent variable and treatment group as the independent variable. […]

COX-2 = COX-2 immunohistochemistry on articular cartilage of surgically induced OA; format: in vivo, rat; conditions: surgery-induced OA rats
From the text: FIGS. 11A-11D are photomicrographs depicting the effect of BQ-123+R-954 dual inhibition. […] Tissues were obtained from surgery induced OA in a rat model Top panel represent COX-2 immunodetection on tissues from non-treated lesioned animals (FIG. 11A); BQ-123 treatment (FIG. 11B); R-954 treatment (FIG. 11C); BQ-123+R-954 dual treatment (FIG. 11D). Specific immune staining for COX-2 protein is observed as a darker color. Surgery, pharmacological treatment, and tissue collection and processing were performed as described in Kaufman et al., Arthritis Research and Therapy, 2011, 13:R76. FIG. 11E is a bar graph depicting the percentage of COX-2-positive chondrocytes in each of the conditions (mean of 5 slides counted per condition).
Method: 5-micron sections were processed for immunohistochemical detection of cyclooxygenase COX-2 as described above.

bradykinin receptor B2 = bradykinin receptor B2 (Homo sapiens, UniProt P30411); conditions: patients with painful knee osteoarthritis, intra-articular; cited from earlier work
Chain of bradykinin receptor B2 (P30411 whole entry): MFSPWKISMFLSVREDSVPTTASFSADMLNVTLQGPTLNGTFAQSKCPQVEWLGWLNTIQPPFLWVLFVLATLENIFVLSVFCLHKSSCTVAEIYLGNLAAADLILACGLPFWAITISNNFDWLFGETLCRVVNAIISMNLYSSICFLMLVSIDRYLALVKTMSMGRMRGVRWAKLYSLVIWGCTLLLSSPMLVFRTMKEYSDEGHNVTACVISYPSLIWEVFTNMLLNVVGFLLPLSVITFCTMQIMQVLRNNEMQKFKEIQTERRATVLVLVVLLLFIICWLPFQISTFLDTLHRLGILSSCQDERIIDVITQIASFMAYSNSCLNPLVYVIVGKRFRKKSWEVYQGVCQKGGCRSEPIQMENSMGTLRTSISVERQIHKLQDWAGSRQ

| SMILES | Mean T2 value [1] [ms] | Mean radiological score [2] | radiological indices of disease progression (DX) versus saline-treated controls [2] | Mean OARSI score [3] | COX-2 staining on articular cartilage (COX-2) | analgesia in knee OA (bradykinin receptor B2) | anti-inflammatory effect in knee OA (bradykinin receptor B2) |
| --- | --- | --- | --- | --- | --- | --- | --- |
| CC(C)C[C@@H]1NC(=O)[C@@H](C(C)C)NC(=O)[C@@H]2CCCN2C(=O)[C@@H](CC(=O)O)NC(=O)[C@@H](Cc2c[nH]c3ccccc23)NC1=O [BQ-123] (cyclo(L[dW][dD]P[dV])) | 61.13 | 2.83 | significantly ameliorated radiological indices of disease progression | 10.25 | diminished |  |  |
| C=C(N)NCC[C@@H](CC(=O)[C@@H](CCCC)CC(C)=O)C(=O)N1[C@H]2CCCC[C@@]2(C)C[C@H]1C(=O)N1CCC[C@@H]1C(=O)CCC(=O)NC(C)(Cc1ccccc1)C(=O)NC(CO)C(=O)C[C@H](Cc1cccc2ccccc12)C(=C)CC(C(=O)O)[C@H](C)CC (some centres unmarked) [R-954] | 64.38 | 2.50 | significantly ameliorated radiological indices of disease progression | 4.25 |  |  |  |
| NC(N)=NCCC[C@@H](N)C(=O)N[C@@H](CCCN=C(N)N)C(=O)N1CCC[C@H]1C(=O)N1C[C@H](O)C[C@H]1C(=O)NCC(=O)N[C@@H](Cc1cccs1)C(=O)N[C@@H](CO)C(=O)N1Cc2ccccc2C[C@@H]1C(=O)N1[C@H](C(=O)N[C@@H](CCCN=C(N)N)C(=O)O)C[C@@H]2CCCC[C@@H]21 [Icatibant] |  |  |  |  |  | provided local analgesia | no anti-inflammatory effect could be detected |
